Results: US20080171716A1, “NUCLEIC ACID MODULATION OF TOLL-LIKE RECEPTOR-MEDIATED IMMUNE STIMULATION” (Protiva Biotherapeutics, Inc., priority 2006, published 2008)

Assays:
[1] = biological target: T1, TLR7 (Mus musculus, UniProt P58681); experiment: In vivo inhibition of loxoribine-mediated cytokine induction in mice; set-up: from tissue; host or cells: whole animal: female Balb/C mice, plasma cytokines; species or system Balb/C mice; details: 100 μg formulated RNA IV 2 h prior to 1 mg Lox
T1 sequence (P58681 27-1050): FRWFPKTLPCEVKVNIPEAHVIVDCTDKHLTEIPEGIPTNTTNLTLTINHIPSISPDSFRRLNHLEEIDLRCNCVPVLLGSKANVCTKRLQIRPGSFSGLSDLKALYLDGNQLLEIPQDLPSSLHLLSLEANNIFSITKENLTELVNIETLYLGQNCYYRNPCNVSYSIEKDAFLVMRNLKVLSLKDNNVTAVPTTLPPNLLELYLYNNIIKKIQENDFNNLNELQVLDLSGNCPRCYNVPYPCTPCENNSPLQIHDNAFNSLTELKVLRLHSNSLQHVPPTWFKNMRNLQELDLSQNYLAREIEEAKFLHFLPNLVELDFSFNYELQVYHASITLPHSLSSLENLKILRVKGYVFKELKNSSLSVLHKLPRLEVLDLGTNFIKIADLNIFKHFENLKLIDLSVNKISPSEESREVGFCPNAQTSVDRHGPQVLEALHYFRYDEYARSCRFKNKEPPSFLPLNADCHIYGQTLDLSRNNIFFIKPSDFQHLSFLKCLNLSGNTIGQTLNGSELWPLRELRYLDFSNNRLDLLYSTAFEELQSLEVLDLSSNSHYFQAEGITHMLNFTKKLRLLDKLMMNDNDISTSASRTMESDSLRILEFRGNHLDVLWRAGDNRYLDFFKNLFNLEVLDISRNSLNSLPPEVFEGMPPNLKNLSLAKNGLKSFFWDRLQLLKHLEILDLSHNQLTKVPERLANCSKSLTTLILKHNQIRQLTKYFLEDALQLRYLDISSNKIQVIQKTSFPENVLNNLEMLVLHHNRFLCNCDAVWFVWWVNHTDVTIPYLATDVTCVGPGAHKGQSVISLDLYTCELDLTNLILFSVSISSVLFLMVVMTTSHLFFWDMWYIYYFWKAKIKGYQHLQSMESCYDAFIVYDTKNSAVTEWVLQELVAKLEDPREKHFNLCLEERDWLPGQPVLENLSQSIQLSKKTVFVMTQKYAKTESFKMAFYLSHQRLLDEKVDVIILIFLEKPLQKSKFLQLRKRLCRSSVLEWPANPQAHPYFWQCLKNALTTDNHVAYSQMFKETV
Description: (§1) Cytokine ELISA. All cytokines were quantified using sandwich ELISA kits according to the manufacturer's instructions. These were mouse and human IFN-α (PBL Biomedical; Piscataway, N.J.) and IL-6 (eBioscience; San Diego, Calif.).
(§2) In Vivo Cytokine Induction. Animal studies were performed at Protiva Biotherapeutics in accordance with Canadian Council on Animal Care guidelines and following protocol approval by the local Animal Care and Use Committee. Female Balb/C mice were subjected to a two-week quarantine and acclimation period prior to use at six to eight-weeks of age. RNA formulations were administered by standard injection in the lateral tail vein in 0.2 ml PBS. Six hours after injection, blood was collected by cardiac puncture and processed as plasma for cytokine analysis. In experiments studying inhibition of cytokine induction by loxoribine, formulated RNA (100 μg) was administered IV 2 h prior to IV administration of 1 mg loxoribine in PBS. Blood was collected by cardiac puncture 2 h after administration of loxoribine and processed as plasma for cytokine analysis.

[2] = biological target: T2, TLR9 (Mus musculus, UniProt Q9EQU3); experiment: CpG ODN (TLR9 agonist)-induced IFN-α in murine Flt3L-derived dendritic cells; format: cell-based; details: murine Flt3L cultures; phosphodiester backbone; formulated in lipid nanoparticles
T2 construct: endogenous in cells; host or cells: Flt3L-derived dendritic cells cultured from bone marrow of female Balb/C mice
T2 sequence (Q9EQU3 26-1032): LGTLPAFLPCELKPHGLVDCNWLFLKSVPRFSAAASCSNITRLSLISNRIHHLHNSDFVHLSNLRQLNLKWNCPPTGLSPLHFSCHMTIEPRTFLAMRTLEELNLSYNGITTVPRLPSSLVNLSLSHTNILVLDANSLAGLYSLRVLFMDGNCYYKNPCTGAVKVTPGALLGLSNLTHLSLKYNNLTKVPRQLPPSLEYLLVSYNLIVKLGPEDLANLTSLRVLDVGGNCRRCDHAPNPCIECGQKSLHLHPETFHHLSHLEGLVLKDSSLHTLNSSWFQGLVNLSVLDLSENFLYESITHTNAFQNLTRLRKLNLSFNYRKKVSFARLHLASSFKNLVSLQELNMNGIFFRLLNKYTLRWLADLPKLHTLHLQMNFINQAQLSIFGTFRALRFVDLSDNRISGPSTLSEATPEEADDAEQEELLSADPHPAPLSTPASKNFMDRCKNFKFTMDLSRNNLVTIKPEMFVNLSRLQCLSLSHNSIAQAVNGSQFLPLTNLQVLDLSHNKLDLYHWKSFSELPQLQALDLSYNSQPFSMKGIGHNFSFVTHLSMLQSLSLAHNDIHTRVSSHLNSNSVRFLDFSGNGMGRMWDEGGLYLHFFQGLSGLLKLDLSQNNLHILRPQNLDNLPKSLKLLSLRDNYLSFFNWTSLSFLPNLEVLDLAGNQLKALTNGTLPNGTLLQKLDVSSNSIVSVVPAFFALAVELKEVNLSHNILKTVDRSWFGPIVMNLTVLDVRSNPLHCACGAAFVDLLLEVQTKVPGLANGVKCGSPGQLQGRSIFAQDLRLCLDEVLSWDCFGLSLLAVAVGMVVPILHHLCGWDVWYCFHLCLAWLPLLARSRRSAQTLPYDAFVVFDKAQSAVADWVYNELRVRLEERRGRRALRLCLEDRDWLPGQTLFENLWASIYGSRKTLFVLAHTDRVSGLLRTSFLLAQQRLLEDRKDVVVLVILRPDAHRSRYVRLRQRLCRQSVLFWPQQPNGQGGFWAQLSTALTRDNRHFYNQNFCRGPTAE
Description: (§3) Lipid Encapsulation of RNA and ODN. RNA or ODN were encapsulated in liposomes by a process of spontaneous vesicle formation as described in Judge et al., supra, and Jeffs et al., Pharm. Res., 22:362-372 (2005).
Flt3L-derived dendritic cells (DC) were generated as described in Gilliet et al., J. Exp. Med., 195:953-958 (2002), using 100 ng/ml murine Flt3-ligand (Peprotech) supplemented media. Femurs and tibiae of female Balb/C mice were isolated and rinsed in sterile PBS. The ends of bones were cut and marrow harvested in complete media (RPMI 1640, 10% heat inactivated FBS, 1% penicillin/streptomycin, 2 mM L-glutamine, 1 mM sodium pyruvate, 25 mM HEPES, 50 μM 2-mercaptoethanol). Bone marrow cells were passed through a 70 μm strainer and centrifuged at 1000 rpm for 7 min. and resuspended in complete media supplemented with 100 ng/ml murine Flt3L to 2×10^6 cells/ml. 2 ml of cells were seeded in 6-well plates and 1 ml fresh media was added every two to three days. On day 9 of culture, non-adherent cells were washed in complete media and plated into 96-well plates at concentrations ranging from 0.5 to 2.5×10^5 cells/well.
(§4) Loxoribine (InvivoGen; San Diego, Calif.), polyIC (Sigma-Aldrich; St. Louis, Mo.), and formulated nucleic acids were diluted in PBS and added to either human PBMC or Flt3L DC cultures. Cells were incubated 24 h at 37° C. before supernatants were assayed for cytokines by ELISA.
as §1

[3] = biological target: T1, TLR7; experiment: In vivo cytokine induction by formulated ssRNA in mice; set-up: from tissue; host or cells: whole animal: female Balb/C mice, plasma cytokines; species or system Balb/C mice; details: IV, plasma 6 h after administration
Description: as §1, §2

[4] = test system: TLR7/8; experiment: Cytokine induction in human PBMCs by immunostimulatory RNA, alone or co-formulated with modified ssRNA in the same SNALP/lipid particle; format: cell-based; details: human PBMC cultures; lipid-formulated RNA alone; doses 0.1 to 3 μg/ml
Description: All RNA molecules used in this study were heated at 90° C. for 3 min. and then placed at 37° C. for 60 min. Non-denaturing PAGE analysis on a 20% polyacrylamide gel was performed to confirm that ssRNA molecules were intact and that no duplexes had formed upon heating. The RNA molecules were encapsulated in a SNALP formulation comprising PEG-cDMA:DLinDMA:cholesterol:DSPC in a 2:40:48:10 mol % ratio (2:40 SNALP), prepared using a syringe press process.
Fresh human peripheral blood mononuclear cells (PBMCs) were isolated and seeded at about 3×10^5 cells/well in a total volume of 180 μl. Next, 20 μl of the appropriate SNALP diluted in PBS or 10 μl of naked TLR agonist were added to the PBMCs. For time course experiments, PBMCs were pretreated with UmodS ssRNA or a control and the appropriate naked TLR agonist was added at 0, 0.5, or 2 hours after pretreatment. When the SNALP and naked TLR agonist were added separately, the SNALP was added first followed by the naked TLR agonist. At t=24 hr., the cell supernatant was harvested and IFN-α and/or IL-6 levels were determined using ELISA.
The ssRNA molecules used in this study were heated at 90° C. for 3 min. and then placed at 37° C. for 60 min to disrupt any potential secondary structure. Non-denaturing PAGE analysis on a 20% polyacrylamide gel was performed to confirm that ssRNA molecules were intact and that no duplexes had formed upon heating. siRNA duplexes were prepared by annealing equimolar concentrations of two deprotected and desalted ssRNA oligonucleotides using standard procedures. Formation of annealed siRNA duplexes was confirmed by non-denaturing PAGE analysis on a 20% polyacrylamide gel. The RNA molecules were encapsulated in a 2:40 SNALP formulation prepared using a syringe press process.
Fresh human peripheral blood mononuclear cells (PBMCs) were isolated and seeded at about 3×10^5 cells/well in a total volume of 180 μl. Next, 20 μl of the appropriate SNALP diluted in PBS were added to the PBMCs. At t=24 hr., the cell supernatant was harvested and IFN-α and/or IL-6 levels were determined using an enzyme-linked immunosorbent assay (ELISA). For example, IFN-α and IL-6 levels can be measured using a sandwich ELISA kit available from PBL Biomedical (Piscataway, N.J.) and eBioscience (San Diego, Calif.), respectively.
as §3
Cell Isolation and Culture. Human PBMCs were isolated from whole blood of healthy donors by a standard Ficoll-Hypaque density centrifugation. Blood was diluted 1:1 with PBS, layered onto Ficoll-Paque Plus, and centrifuged at 1600 RPM for 30 min. PBMCs were washed in PBS twice followed by resuspension in complete media (RPMI 1640, 10% heat inactivated FBS, 2 mM L-glutamine, and 1% penicillin/streptomycin). PBMCs were plated at 2.5×10^5 cells/well in 96 well plates for cytokine induction assays.
as §4, §1

“GFP-S: native non-stimulatory ssRNA: GGCUACGUCCAGGAGCGCAUU (RNA, backbone not given here) [reference compound]” was tested, and the “response to loxoribine (plasma IFN-α and IL-6) after pre-treatment” value [1] was “robust response”.
ODN 1826 was tested, and the “immunostimulatory activity of the ODN alone” value (“immunostimulatory activity” below) [2] was “highly immunostimulatory”.
With “ODN 6295: CpG Type A ODN, phosphodiester: TAACGTTGAGGGGCAT (DNA, all phosphodiester, methylation of C not given here; formulated in lipid nanoparticles)” the “immunostimulatory activity” value [2] was “highly immunostimulatory”.
With “ODN M362: CpG Type C ODN, phosphodiester: TCGTCGTCGTTCGAACGACGTTGAT (DNA, all phosphodiester, methylation of C not given here; formulated in lipid nanoparticles)” the “immunostimulatory activity” value [2] was “highly immunostimulatory”.
With “βgal-AS: immunostimulatory ssRNA: AAAUCGCUGAUUUGUGUAGUU (chemistry not given here) [reference compound]” the “plasma IFN-α after administration of the formulated RNA alone” value [3] was “significant elevations”, the “plasma IL-6 after administration of the formulated RNA alone” value [3] was “significant elevations” and the “IFN-α production induced by the RNA alone” value [4] was “induced high levels of IFN-α”.
